Each compound was assayed on myocardial cells (assay: Activity of preventing cardiomyocyte apoptosis induced by TM (MTT cell survival)). Conditions: Cardiomyocyte, primary neonatal rat myocardial cells, compound 30 min before TM 0.5 μg/ml, 48 h, read-out: Protection effects against cardiomyocyte apoptosis induced by TM, EC50.
Assay type: cell-based, Neonatal Wistar rats
Procedure: Neonatal Wistar rats newborn within 24 h, not confined to female or male (provided by the Center of Laboratory Animals, Academy of Military Medical Science of the PLA, animal certificate No.: SCXK-( ? ) 2007-004). High-sugar DMEM culture medium, trypsinase, and type II collagenase purchased from Gibco Company; fetal bovine serum (FBS) purchased from Beijing Yuanhengshengma Biological Technology Institute; 5-bromo-2-deoxyuridine (5-Brdu), tunicamycin (TM) purchased from Sigma Company; thiazolyl blue (MTT), dimethyl sulfoxide (DMSO) which is the product of Amresco; other chemical agents were all analytical pure and made in China. Universal Microplate ReaderEL800 type of ELIASA was a product of BIO-TEK Company of US.
neonatal Wistar rats newborn within 24 h were used, skin of abdomen was sterilized with iodine and alcohol. Tissue of ventricular apex was taken out with aseptic operation, cut into pieces with 1 mm^3 size, added with suitable amount of 0.125% pancretin and 0.1% collagenase II (final concentration was respectively 0.1% and 0.02%), mechanical shaking in 37° C. water-bath, 10 min each time, digested repeatedly until the tissue pieces were completely digested. The prepared myocardial cell suspension was inoculated in a 75 cm^2 culture flask. Non-myocardial cells were removed by differential adhesion method. The myocardial cell density was adjusted with DMEM culture medium containing 10% FBS, inoculated to a 96-well plate in an amount of 10^4/ml, placed in 5% CO2 incubator at 37° C. for 24 h for primary culture. Half medium was replaced after 24 h, a culture medium containing 0.1% 5-Brdu (5-bromo-2-deoxyuridine) was replenished to inhibit the growth of non-myocardial cells. The medium was replaced once per 48 h for primary culture.
Measurement of compound activity: myocardial cells were cultured for 4 days, respectively treated with compound in different concentrations (0.3 μM, 1 μM, 3 μM) for 30 min, then added with TM to final concentration of 0.5 μg/ml (TM group with final concentration of 0.5 μg/ml and solvent control group (DMSO) were set at the same time), and placed in 37° C., 5% CO2 incubator and cultured for 48 h, then each well was added with 10 μl of MTT (5 mg/ml) and continuously incubated for 4 h, finally each well was added with 100 μL of 10% SDS, incubated at 37° C., 5% CO2 for 24 h, so that MTT crystal was completely dissolved. ELISA was used to measure light absorbance of each well under 550 nm wavelength, in which TM and the compound of the present invention were formulated with DMSO. The formula is: cell survival rate (%)=OD value of administration group/average OD value of solvent control well×100%. The results were expressed in x±SD, and EC50 values (Table 1) were calculated with software, so that the effect of compound of the present invention preventing cardiomyocyte apoptosis induced by TM was determined.
O=C(/C=C/c1ccccc1)NC(Nc1nc(-c2ccccc2)cs1)C(Cl)(Cl)Cl (stereo not shown) [Example 6] was tested, and the EC50 was 30 µM.
O=C(/C=C/c1ccccc1)NC(Nc1nc(-c2ccccc2)c(-c2ccccc2)s1)C(Cl)(Cl)Cl (stereo not shown) [Example 2] was tested, and the EC50 was 47 µM.
Work on COc1ccc(-c2nc(NC(NC(=O)/C=C/c3ccccc3)C(Cl)(Cl)Cl)sc2-c2ccccc2)cc1 (stereo not shown) [Example 1] yielded an EC50 of 100 µM.
In the case of O=C(/C=C/c1ccccc1)NC(Nc1nc(-c2ccc(Cl)cc2)cs1)C(Cl)(Cl)Cl (stereo not shown) [Example 5, (2E)-3-(2-phenyl)-N-[1-(4-chlorophenyl-2-thiazolyl)-2,2,2-trichloroethyl]-2-acrylamide], the EC50 is reported as 0.3 µM.
Work on COc1ccc(-c2csc(NC(NC(=O)/C=C/c3ccccc3)C(Cl)(Cl)Cl)n2)cc1 (stereo not shown) [Example 3, (2E)-3-(2-phenyl)-N-[1-(4-methoxyphenyl-2-thiazolyl)-2,2,2-trichloroethyl]-2-acrylamide] yielded an EC50 of 61 µM.
O=C(/C=C/c1ccccc1)NC(Nc1nc(-c2ccc(F)cc2F)cs1)C(Cl)(Cl)Cl (stereo not shown) [Example 4, (2E)-3-(2-phenyl)-N-[1-(2,4-difluorophenyl-2-thiazolyl)-2,2,2-trichloroethyl]-2-acrylamide] showed an EC50 of 0.8 µM.

Same assay, conditions: primary neonatal rat myocardial cells, TM 0.5 μg/ml
For O=C(/C=C/c1ccccc1)NC(Nc1nc(-c2ccc(Cl)cc2)cs1)C(Cl)(Cl)Cl (stereo not shown) [Example 5, (2E)-3-(2-phenyl)-N-[1-(4-chlorophenyl-2-thiazolyl)-2,2,2-trichloroethyl]-2-acrylamide], the “Protection effects against cardiomyocyte apoptosis induced by TM (in words)” value was “good protection effects”.

Source: patent US9139543B2, “Thiazole compounds and uses thereof” (Institute of Pharmacology and Toxicology Academy of …, priority 2012, dated 2015)
